The target of test [1] is human GABAA α1β2γ1 receptor (Homo sapiens (Human), UniProt P14867+Q8N1C3). The experiment in a line: Radioligand binding assay, competition for [3H]RO7239181, γ1-containing GABAA subtypes.
Test [2] deals with h-GABA-A α2β2γ1 receptor expressed in Xenopus laevis oocytes (Homo sapiens (Human), UniProt P47869+Q8N1C3). The experiment in a line: Two-electrode voltage clamp electrophysiology in Xenopus oocytes expressing GABAA receptors. The class given is cell-based. The settings on record: for Efficacy (GABA)%: % modulation of GABA EC20 = 100*(Fold increase-1), compound at 30-fold Ki α2β2γ1; for Fold increase h-GABA-A α2β2γ1 oocyte @ 30-fold Ki: GABA EC20, test compound at approx. 30-fold its Ki α2β2γ1, at least 3 oocytes. The text has this:
Functional Expression of GABAA Receptors:
Xenopus Oocytes Preparation
Xenopus laevis oocytes at maturation stages V-VI were used for the expression of cloned mRNA encoding GABAA receptor subunits. Oocytes ready for RNA micro-injection were bought from Ecocyte, Castrop-Rauxel, Germany and stored in modified Barth's medium (composition in mM: NaCl 88, KCl 1, NaHCO3 2.4, HEPES 10, MgSO4 0.82, CaNO3 0.33, CaCl2 0.33, pH=7.5) at 20 C. until the experiment.
Xenopus Oocytes Microinjection
Oocytes were plated in 96-well plates for microinjection using the Roboinject automated instrument (MultiChannelSystems, Reutlingen, Germany). Approximately 50 nL of an aqueous solution containing the RNA transcripts for the subunits of the desired GABAA receptor subtype was injected into each oocyte. […] Oocytes were kept in modified Barth's medium (composition in mM: NaCl 88, KCl 1, NaHCO3 […], HEPES 10, MgSO4 0.82, CaNO3 0.33, CaCl2 0.33, pH=7.5) at 20° C. until the experiment.
Electrophysiological experiments were performed using the Roboocyte instrument (MultiChannelSystems, Reutlingen, Germany) on days 3 to 5 after the micro-injection of mRNA. During the experiment the oocytes were constantly superfused by a solution containing (in mM) NaCl 90, KCl 1, HEPES 5, MgCl: 1, CaCl, 1 (pH 7.4). Oocytes were impaled by two glass microelectrodes (resistance: 0.5-0.8 MS2) which were filled with a solution containing KCl 1M +K-acetate 1.5 M and voltage-clamped to −80 mV. The recordings were performed at room temperature using the Roboocyte two-electrode voltage clamp system (Multichannelsystem). After an initial equilibration period of 1.5 min GABA was added for 1.5 min at a concentration evoking approximately 20% of a maximal current response (EC20). After another rest interval of 2.5 min GABA was again added evoking a response of similar amplitude and shape. […] Current traces were recorded at a digitization rate of 10 Hz during and shortly before and after the GABA application.
Each compound and concentration was tested on at least 3 oocytes. Different oocytes were used for different compound concentrations.
For the analysis, the digitized current traces of the first and second GABA response were superimposed and, if necessary, rescaled to equal maximal amplitudes. The ratio between the two responses during the time interval of test compound application was calculated point by point. The extremum of the resulting “ratio trace” was taken as the efficacy (“Fold increase”) of the compound expressed as “% modulation of GABA EC” (100* (Fold increase-1)).
(In general: In two-electrode clamp one electrode senses voltage and the other passes current.)

These results are taken from patent US20240190889A1, “NEW CYCLOPENTA-THIENO-DIAZEPINE DERIVATIVES AS GABA A GAMMA1 POSITIVE ALLOSTERIC MODULATORS” (Hoffmann-La Roche Inc., priority 2021, published 2024).

Structures are written as SMILES.

As usually defined, the Ki is a measure of affinity in units of concentration, obtained from inhibition or displacement. Read a low Ki as tighter binding. Regarding `Cc1nnc2n1-c1sc3c(c1C(c1c(F)cccc1Cl)=NC2)C[C@@H](C#N)C3` [Example 1, (13R)-9-(2-chloro-6-fluoro-phenyl)-3-methyl-16-thia-2,4,5,8-tetrazatetracyclo [8.6.0.02,6.011,15]hexadeca-1(10),3,5,8,11(15)-pentaene-13-carbonitrile], affinity in test [1] was put at a Ki of 47.9 nM. In test [2], the “Efficacy (GABA)%” value worked out at 54% and the “Fold increase h-GABA-A α2β2γ1 oocyte @ 30-fold Ki” value is recorded as 1.54.
The molecule `Cc1nnc2n1-c1sc3c(c1C(c1c(F)cccc1F)=NC2)C[C@@H](C(F)F)C3` [Example 3, (13R)-13-(difluoromethyl)-9-(2,6-difluorophenyl)-3-methyl-16-thia-2,4,5,8-tetrazatetracyclo [8.6.0.02,6.011,15]hexadeca-1(10),3,5,8,11(15)-pentaene] showed a Ki in test [1] of 16.8 nM. Also, in test [2], the “Efficacy (GABA)%” value turned out to be 54% and the “Fold increase h-GABA-A α2β2γ1 oocyte @ 30-fold Ki” value was determined as 1.54.
For the molecule `Cc1nnc2n1-c1sc3c(c1C(c1c(F)cccc1F)=N[C@H]2C)C[C@@H](C(F)F)C3` [Example 5, (7S,13R)-13-(difluoromethyl)-9-(2,6-difluorophenyl)-3,7-dimethyl-16-thia-2,4,5,8-tetrazatetracyclo [8.6.0.02,6.011,15]hexadeca-1(10),3,5,8,11(15)-pentaene], the affinity in test [1], expressed as Ki, was 14.4 nM. Further, in test [2], the “Efficacy (GABA)%” value worked out at 41% and the “Fold increase h-GABA-A α2β2γ1 oocyte @ 30-fold Ki” value is reported as 1.41.
